Biological target: T1, Human PPARα (Homo sapiens, UniProt Q07869)
T1 construct: host or cells: proprietary non-human mammalian cells
T1 sequence (Q07869 1-468): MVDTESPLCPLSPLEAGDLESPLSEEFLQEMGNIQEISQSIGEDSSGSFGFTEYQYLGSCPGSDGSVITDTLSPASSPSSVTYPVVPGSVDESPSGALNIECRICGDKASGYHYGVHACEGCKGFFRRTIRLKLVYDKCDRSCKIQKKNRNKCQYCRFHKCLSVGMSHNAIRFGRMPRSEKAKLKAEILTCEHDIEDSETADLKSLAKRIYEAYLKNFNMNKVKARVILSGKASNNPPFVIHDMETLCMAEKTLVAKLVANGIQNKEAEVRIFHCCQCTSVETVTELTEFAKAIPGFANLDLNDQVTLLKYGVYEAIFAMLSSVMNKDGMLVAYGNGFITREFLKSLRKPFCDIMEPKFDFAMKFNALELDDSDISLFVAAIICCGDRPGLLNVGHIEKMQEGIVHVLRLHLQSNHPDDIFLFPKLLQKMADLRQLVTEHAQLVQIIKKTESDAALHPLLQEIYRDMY
Test: Human PPARα Reporter Assay (luciferase)
Type: cell-based
Conditions: human PPARα reporter cells, overnight incubation, antagonism; read-out: Luciferase IC50
Procedure, shortened: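 Agonist or antagonist activity read as luciferase light from engineered reporter cells carrying human PPARα and a responsive reporter gene. Cells got compound immediately on dispensing, incubated overnight, then treatment media swapped for luciferase detection reagent.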

IC50	SMILES
83 nM	CCn1c(CCCc2ccc(-c3cc(CC(=O)O)cc(OC)c3)cc2)nn(Cc2ccc(C(C)(C)C)cc2)c1=O [Example 194, 2-(3-{4-[3-(1-{[4-(tert-Butyl)phenyl]methyl}-4-ethyl-5-oxo(1,2,4-triazolin-3-yl))propyl]phenyl}-5-methoxyphenyl)acetic acid]
88 nM	CCn1c(CCCc2ccc(-c3cccc(CC(=O)O)c3)cc2)nn(Cc2ccc(C(C)(C)C)c(Br)c2)c1=O [Example 67, 2-(4′-(3-(1-(3-Bromo-4-(tert-butyl)benzyl)-4-ethyl-5-oxo-4,5-dihydro-1H-1,2,4-triazol-3-yl)propyl)-[1,1′-biphenyl]-3-yl)acetic acid]
270 nM	CCn1c(CCCc2ccc(-c3ccc4[nH]cc(C(=O)O)c4c3)cc2)nn(Cc2ccc(C(C)(C)C)cc2)c1=O [Example 70, 5-(4-(3-(1-(4-(tert-Butyl)benzyl)-4-ethyl-5-oxo-4,5-dihydro-1H-1,2,4-triazol-3-yl)propyl)phenyl)-1H-indole-3-carboxylic acid]
446 nM	CCn1c(CCCc2ccc(-c3cnc(NS(=O)(=O)c4ccccc4)cn3)cc2)nn(Cc2ccc(C(C)(C)C)cc2)c1=O [Example 118, N-(5-(4-(3-(1-(4-(tert-Butyl)benzyl)-4-ethyl-5-oxo-4,5-dihydro-1H-1,2,4-triazol-3-yl)propyl)phenyl)pyrazin-2-yl)benzenesulfonamide]
12 nM	CCn1c(CCCc2ccc(-c3ccc(OC)c(NS(=O)(=O)C4CC4)n3)cc2)nn(Cc2ccc(C(C)(C)C)cc2)c1=O [Example 190, 1-{[4-(tert-Butyl)phenyl]methyl}-4-ethyl-3-[3-(4-{6-[(cyclopropylsulfonyl)amino]-5-methoxy(2-pyridyl)}phenyl)propyl]-1,2,4-triazolin-5-one]
186 nM	CCn1c(CCCc2ccc(-c3ccc(OC)c(S(=O)(=O)Nc4ccccn4)c3)cc2)nn(Cc2ccc(C(C)(C)C)cc2)c1=O [Example 123, 4′-(3-(1-(4-(tert-Butyl)benzyl)-4-ethyl-5-oxo-4,5-dihydro-1H-1,2,4-triazol-3-yl)propyl)-4-methoxy-N-(pyridin-2-yl)-[1,1′-biphenyl]-3-sulfonamide]
116 nM	CCn1c(CCCc2ccc(-c3cccc(CC(=O)O)c3)cc2)nn(Cc2ccc(C(C)(C)C)c(C)c2)c1=O [Example 115, 2-(4′-(3-(1-(3-Methyl-4-(tert-butyl)benzyl)-4-ethyl-5-oxo-4,5-dihydro-1H-1,2,4-triazol-3-yl)propyl)-[1,1′-biphenyl]-3-yl) acetic acid]
95 nM	CCn1c(CCCc2ccc(-c3cccc(CC(=O)O)c3)cc2)nn(Cc2ccc(C(C)(C)C)cc2)c1=O [Example 1, 2-(4′-(3-(1-(4-(tert-Butyl)benzyl)-4-ethyl-5-oxo-4,5-dihydro-1H-1,2,4-triazol-3-yl)propyl)-[1,1′-biphenyl]-3-yl)acetic acid]
568 nM	CCn1c(CCCc2ccc(-c3cccc(CC(=O)O)n3)cc2)nn(Cc2ccc(C(C)(C)C)cc2)c1=O [Example 50, 2-(6-{4-[3-(1-{[4-(tert-Butyl)phenyl]methyl}-4-ethyl-5-oxo-1,2,4-triazolin-3-yl)propyl]phenyl}-2-pyridyl) acetic acid]
29 nM	CCn1c(CCCc2ccc(-c3ccc(OC)c([C@@H](C)C(=O)O)c3)cc2)nn(Cc2ccc(C(C)(C)C)cc2)c1=O [Example 141, (R)-2-(4′-(3-(1-(4-(tert-Butyl)benzyl)-4-ethyl-5-oxo-4,5-dihydro-1H-1,2,4-triazol-3-yl)propyl)-4-methoxy-[1,1′-biphenyl]-3-yl)propanoic acid]
38 nM	CCn1c(CCCc2ccc(-c3ccc(SC)c(CC(=O)O)c3)cc2)nn(Cc2ccc(C(C)(C)C)cc2)c1=O [Example 64, 2-(5-{4-[3-(1-{[4-(tert-Butyl)phenyl]methyl}-4-ethyl-5-oxo(1,2,4-triazolin-3-yl))propyl]phenyl}-2-methylthiophenyl)acetic acid]
208 nM	CCn1c(CCCc2ccc(-c3cccc(NS(=O)(=O)c4ccc(OC)cc4)n3)cc2)nn(Cc2ccc(C(C)(C)C)cc2)c1=O [Example 84, 1-{[4-(tert-Butyl)phenyl]methyl}-4-ethyl-3-{3-[4-(6-{[(4-methoxyphenyl)sulfonyl]amino}(2-pyridyl))phenyl]propyl}-1,2,4-triazolin-5-one]
1420 nM	CCn1c(CCCc2ccc(-c3cccc(CC(=O)O)c3F)cc2)nn(Cc2ccc(C(C)(C)C)cc2)c1=O [Example 18, 2-(4′-(3-(1-(4-(tert-Butyl)benzyl)-4-ethyl-5-oxo-4,5-dihydro-1H-1,2,4-triazol-3-yl)propyl)-2-fluoro-[1,1′-biphenyl]-3-yl)acetic acid]
94 nM	CCn1c(CCCc2ccc(-c3ccc(OC)c(CC(=O)O)c3)c(C)c2)nn(Cc2ccc(C(C)(C)C)cc2)c1=O [Example 157, 2-(4′-(3-(1-(4-(tert-Butyl)benzyl)-4-ethyl-5-oxo-4,5-dihydro-1H-1,2,4-triazol-3-yl)propyl)-4-methoxy-2′-methyl-[1,1′-biphenyl]-3-yl)acetic acid]
865 nM	CCCc1ccc(S(=O)(=O)Nc2ccc(-c3ccc(CCCc4nn(Cc5ccc(C(C)(C)C)cc5)c(=O)n4CC)cc3)nc2)cc1 [Example 71, 1-{[4-(tert-Butyl)phenyl]methyl}-4-ethyl-3-{3-[4-(5-{[(4-propylphenyl)sulfonyl]amino}(2-pyridyl))phenyl]propyl}-1,2,4-triazolin-5-one]
13 nM	CCn1c(CCCc2ccc(-c3ccc(OC(C)C)c(CC(=O)O)c3)cc2)nn(Cc2ccc(C(C)(C)C)cc2)c1=O [Example 200, 2-(4′-(3-(1-(4-(tert-Butyl)benzyl)-4-ethyl-5-oxo-4,5-dihydro-1H-1,2,4-triazol-3-yl)propyl)-4-isopropoxy-[1,1′-biphenyl]-3-yl)acetic acid]
157 nM	CCn1c(CCCc2ccc(-c3cc(N)ccn3)cc2)nn(Cc2ccc(C(C)(C)C)cc2)c1=O [Example 11, 3-(3-(4-(4-Aminopyridin-2-yl)phenyl)propyl)-1-(4-(tert-butyl)benzyl)-4-ethyl-1H-1,2,4-triazol-5(4H)-one]
184 nM	CCn1c(CCCc2ccc(-c3ccc(OC)c(CC(=O)O)c3)cc2OC)nn(Cc2ccc(C(C)(C)C)cc2)c1=O [Example 158, 2-(4′-(3-(1-(4-(tert-Butyl)benzyl)-4-ethyl-5-oxo-4,5-dihydro-1H-1,2,4-triazol-3-yl)propyl)-3′,4-dimethoxy-[1,1′-biphenyl]-3-yl)acetic acid]
8 nM	CCn1c(CCCc2ccc(-c3ccc(OC)c(NS(=O)(=O)c4ccc(Cl)nc4)n3)cc2)nn(Cc2ccc(C(C)(C)C)cc2)c1=O [Example 113, 1-{[4-(tert-Butyl)phenyl]methyl}-3-{3-[4-(6-{[(6-chloro(3-pyridyl))sulfonyl]amino}-5-methoxy(2-pyridyl))phenyl]propyl}-4-ethyl-1,2,4-triazolin-5-one]
712 nM	CCCC(=O)Nc1cccc(-c2ccc(CCCc3nn(Cc4ccc(C(C)(C)C)cc4)c(=O)n3CC)cc2)n1 [Example 100, N-(6-{4-[3-(1-{[4-(tert-Butyl)phenyl]methyl}-4-ethyl-5-oxo-1,2,4-triazolin-3-yl)propyl]phenyl}-2-pyridyl)butanamide]
510 nM	CCn1c(CCCc2ccc(-c3cc(C(=O)O)cc(C(F)(F)F)c3)cc2)nn(Cc2ccc(C(C)(C)C)cc2)c1=O [Example 41, 4′-(3-(1-(4-(tert-Butyl)benzyl)-4-ethyl-5-oxo-4,5-dihydro-1H-1,2,4-triazol-3-yl)propyl)-5-(trifluoromethyl)-[1,1′-biphenyl]-3-carboxylic acid]
91 nM	CCn1c(CCCc2ccc(-c3ccc(C4(F)COC4)nc3)cc2)nn(Cc2ccc(C(C)(C)C)cc2)c1=O [Example 166, 1-(4-(tert-Butyl)benzyl)-4-ethyl-3-(3-(4-(6-(3-fluorooxetan-3-yl)pyridine-3-yl)phenyl)propyl)-1H-1,2,4-triazol-5(4H)-one]
71 nM	CCn1c(CCCc2ccc(-c3ccc(OC)c(N)n3)cc2)nn(Cc2ccc(C(C)(C)C)cc2)c1=O [Example 58, 3-{3-[4-(6-Amino-5-methoxy(2-pyridyl))phenyl]propyl}-1-{[4-(tert-butyl)phenyl]methyl}-4-ethyl-1,2,4-triazolin-5-one]
69 nM	CCn1c(CCCc2ccc(-c3ccc(OCC4CC4)c(CC(=O)O)c3)cc2)nn(Cc2ccc(C(C)(C)C)cc2)c1=O [Example 49, 2-(4′-(3-(1-(4-(tert-Butyl)benzyl)-4-ethyl-5-oxo-4,5-dihydro-1H-1,2,4-triazol-3-yl)propyl)-4-(cyclopropylmethoxy)-[1,1′-biphenyl]-3-yl)acetic acid]
414 nM	CCn1c(CCCc2ccc(-c3ccc(OC)c(CCNS(=O)(=O)c4ccccc4)c3)cc2)nn(Cc2ccc(C(C)(C)C)cc2)c1=O [Example 182, 1-{[4-(tert-Butyl)phenyl]methyl}-4-ethyl-3-{3-[4-(4-methoxy-3-{2-[(phenylsulfonyl)amino]ethyl}phenyl)phenyl]propyl}-1,2,4-triazolin-5-one]
816 nM	CCNC(=O)Nc1cccc(-c2ccc(CCCc3nn(Cc4ccc(C(C)(C)C)cc4)c(=O)n3CC)cc2)n1 [Example 171, 1-(6-(4-(3-(1-(4-(tert-Butyl)benzyl)-4-ethyl-5-oxo-4,5-dihydro-1H-1,2,4-triazol-3-yl)propyl)phenyl)pyridin-2-yl)-3-ethylurea]

From US9505728B2, “Triazolone compounds and uses thereof” (INCEPTION 2, INC., priority 2012, dated 2016)
